Measurements as given in patent US11433090B2, “mTOR-inhibitor-containing medicine for treating or preventing ophthalmic symptoms, disorders, or diseases, and application thereof” (The Doshisha, priority 2017, dated 2022).

Test system: S6K
Assay: Western blot of S6K phosphorylation after TGF-β2 stimulation in iFECD
Type: cell-based, human
Details: 3 pmol mTOR siRNA, FIG. 6
Method: The medium was removed from a culture dish in which iFECDs were being cultured, and the cells were supplemented with 1×PBS (−) that was preheated to 37° C., and were washed. This was repeated twice. The cells were supplemented again with 1×PBS (−) and incubated for 3 minutes at 37° C. (5% CO2). After removing the PBS (−), the cells were supplemented with 0.05% Trypsin-EDTA (Nacalai Tesque, 32778-34) and incubated for 5 minutes at 37° C. (5% CO2). The cells were then suspended in a medium, and collected by centrifugation at 1500 rpm for 3 minutes. DMEM (Nacalai Tesque, 08456-36)+10% FBS (Biowest, S1820-500)+1% P/S (Nacalai Tesque, 26252-94) was used as the medium.
iFECDs were seeded on a 12-well plate at a ratio of 7×10^4 cells per well and cultured for 24 hours at 37° C. (5% CO2) (DMEM+10% FBS+1% P/S was used as the medium). After 24 hours, the medium was removed. Rapamycin was added to culture the cells for 24 hours. (DMEM+2% FBS+1% P/S was used as the medium). After 24 hours, the medium was removed. A medium containing 10 ng/ml of Recombinant Human TGF-β2 (Wako, 200-19911) and rapamycin was added to culture the cells for 24 hours. […]
8 μg of the extracted protein was separated by SDS-PAGE and transferred onto a nitrocellulose membrane. […] The detected band strength was analyzed with a lumino image analyzer LAS-4000 mini (Fuji Film) and ImageQuant™ software (GE Healthcare). […]

Question: “mTOR siRNA: siRNA against mTOR gene (Ambion, AS026M0L); sense strand SEQ ID NO: 1, antisense strand SEQ ID NO: 2 (sense CAUUCGCAUUCAGUCCAUATT; antisense UAUGGACUGAAUGCGAAUGAT; chemistry not given here)” was tested. Which “phosphorylation of S6K at protein level, western blot” value did it give?
Answer: suppressed
